For data set [1] the following is noted: amide bond, HATU, DMF.
The next data set has as its system RSV ATCC VR-1540 (A2). Description: microbe, parasite or virus in culture. The data set is classed as cell-based. Conditions: human respiratory syncytial virus, HEp-2, 96 h; Hep2 cells, incubated for 4 days, CPE detected with XTT assay (absorbance 450 nm); read-out: EC50 (nmol/L) against RSV A2 strain.
In data set [2] the test system is F protein D486N mutant strain of RSV A2 strain. The format is cell-based, respiratory syncytial virus (RSV). Conditions: Hep2 cells, incubated for 4 days, CPE detected with XTT assay (absorbance 450 nm); read-out: EC50 (nmol/L) against F protein D486N mutant strain of RSV A2 strain. (In general: Formazan colour is commonly taken as a measure of viable cells.)
The subject of a further data set is D486N mutant strain. The note with it: D486N mutant vs wild strain; cited from earlier work.

Where a name gives a salt, the structure may show the parent alone. Read-outs that look alike come from different tables or passages of the source.

Regarding `CN1CCCCS(=O)(=O)NC(C)(c2ccccc2)C(=O)N2CCCC[C@H]2c2cc3nc(Cl)cc1n3n2` (stereo partly drawn), in data set [1] (from CN(CCCCS(=O)(=O)NC(C)(C(=O)O)c1ccccc1)c1cc(Cl)nc2cc([C@@H]3CCCCN3)nn12, 10.2 mM, 70.0 °C, 2.5 h), the ring closure, yield of all isomers was 80.4%.

In the case of `CN1CCNC(=O)COc2ccc(F)cc2C(=O)N2CCCC[C@H]2c2cc3nc(Cl)cc1n3n2`, the ring closure, yield of all isomers in data set [1] (from CN(CCNC(=O)COc1ccc(F)cc1C(=O)O)c1cc(Cl)nc2cc([C@@H]3CCCCN3)nn12, 10.0 mM, 25.0 °C, 15.0 h) turned out to be 64.8%.

Consider `CN1CCNC(=O)COc2ccc(F)cc2C(=O)N2CCCCC2c2cc3nc(N4CCC(N)C4)cc1n3n2` [Example 1, (18aS)-13-[(3S)-3-aminopyrrolidin-1-yl]-2-fluoro-11-methyl-8,9,10,11,19,20,21,22-octahydro-18aH,24H-18,15-(metheno)pyrido[2,1-l]pyrimido[6,1-h][1,4,7,9,10,13]benzoxapentaazacyclohexadecine-7,24(6H)-dione], for which the EC50 turned out to be 2.07 nmol/L with RSV ATCC VR-1540 (A2) and 3.17 nmol/L in data set [2].

For the compound `CN1CCNC(=O)COc2ccc(F)cc2C(=O)N2CCCC[C@H]2c2cc3nc(N4CCC4)cc1n3n2` [Example 2, (18aS)-13-(azetidin-1-yl)-2-fluoro-1-methyl-8,9,10,11,19,20,21,22-octahydro-18aH,24H-18,15-(metheno)pyrido[2,1-l]pyrimido[6,1-h][1,4,7,9,10,13]benzoxapentaazacyclohexadecine-7,24(6H)-dione], the EC50 is 0.8 nmol/L with RSV ATCC VR-1540 (A2) and 3.06 nmol/L in data set [2].

Consider `CN1CCCNC(=O)COc2ccc(F)cc2C(=O)N2CCCC[C@H]2c2cc3nc(N4CC(N)C4)cc1n3n2` [Example 57, (19aS)-14-(3-aminoazetidin-1-yl)-2-fluoro-12-methyl-9,10,11,12,20,21,22,23-octahydro-6H, 19aH,25H-19,16-(metheno)pyrido[2,1-m]pyrimido[6,1-i][1,4,8,10,11,14]benzoxapentaazacycloheptadecine-7,25(8H)-dione], for which the figures for the EC50 (in the data set on RSV ATCC VR-1540 (A2); in data set [2]) were 2.11 nmol/L and 12.6 nmol/L, respectively.

`[2H]C([2H])([2H])c1ccc2c(c1)C(=O)N1CCCC[C@H]1c1cc3nc(C4CC4)cc(n3n1)N(C)CCNC(=O)CO2` [Example 100, (18aS)-13-cyclopropyl-11-methyl-2-trideuteriomethyl-8,9,10,11,19,20,21,22-octahydro-18aH,24H-18,15-(metheno)pyrido[2,1-l]pyrimido[6,1-h][1,4,7,9,10,13]benzoxapentaazacyclohexadecine-7,24(6H)-dione]: the results for the EC50 (with RSV ATCC VR-1540 (A2); in data set [2]) were 0.328 nmol/L and 0.678 nmol/L, respectively.

On to `CN1CCNC(=O)COc2ccc(Cl)cc2C(=O)N2CCCCC2c2cc3nc(C4CC(O)C4)cc1n3n2` [Example 112, (18aS)-2-chloro-13-(trans-3-hydroxycyclobutyl)-11-methyl-8,9,10,11,19,20,21,22-octahydro-18aH,24H-18,15-(metheno)pyrido[2,1-l]pyrimido[6,1-h][1,4,7,9,10,13]benzoxapentaazacyclohexadecine-7,24(6H)-dione], for which the EC50 in data set [2] was 0.704 nmol/L.

For the compound `[2H]C([2H])([2H])N1CCNC(=O)COc2ccc(Cl)cc2C(=O)N2CCCCC2c2cc3nc(C4CC(O)C4)cc1n3n2` [Example 115, (18aS)-2-chloro-13-(trans-3-hydroxycyclobutyl)-11-trideuteriomethyl-8,9,10,11,19,20,21,22-octahydro-18aH,24H-18,15-(metheno)pyrido[2,1-l]pyrimido[6,1-h][1,4,7,9,10,13]benzoxapentaazacyclohexadecine-7,24(6H)-dione], the EC50 with RSV ATCC VR-1540 (A2) was 0.344 nmol/L; in data set [2], 0.777 nmol/L.

As to `Cc1ccc2c(c1)C(=O)N1CCCCC1c1cc3nc(C4CC(O)C4)cc(n3n1)N(C)CCNC(=O)CO2` [Example 117, (18aS)-13-(trans-3-hydroxycyclobutyl)-2,11-dimethyl-8,9,10,11,19,20,21,22-octahydro-18aH,24H-18,15-(metheno)pyrido[2,1-l]pyrimido[6,1-h][1,4,7,9,10,13]benzoxapentaazacyclohexadecine-7,24(6H)-dione], the EC50 in the data set with RSV ATCC VR-1540 (A2) turned out to be 0.773 nmol/L; in data set [2] it was 0.742 nmol/L.

For the compound `[2H]C([2H])([2H])c1ccc2c(c1)C(=O)N1CCCCC1c1cc3nc(C4CC(O)C4)cc(n3n1)N(C([2H])([2H])[2H])CCNC(=O)CO2` [Example 120, (18aS)-13-(trans-3-hydroxycyclobutyl)-2,1I-bis[trideuteriomethyl]-8,9,10,11,19,20,21,22-octahydro-18aH,24H-18,15-(metheno)pyrido[2,1-l]pyrimido[6,1-h][1,4,7,9,10,13]benzoxapentaazacyclohexadecine-7,24(6H)-dione], the EC50 came to 0.45 nmol/L with RSV ATCC VR-1540 (A2) and 0.639 nmol/L in data set [2].

For `Cc1ccc2c(c1)C(=O)N1CCCC[C@H]1c1cc3nc(N4CC(O)C4)cc(n3n1)N(C)CCNCCO2` [Example 171, (18aS)-13-(3-hydroxyazetidin-1-yl)-2,11-dimethyl-6,7,8,9,10,11,19,20,21,22-decahydro-18aH,24H-18,15-(metheno)pyrido[2,1-l]pyrimido[6,1-h][1,4,7,9,10,13]benzoxapentaazacyclohexadecin-24-one], the EC50 in data set [2] is 4.19 nmol/L.

Take `Cc1ccc2c(c1)C(=O)N1CCCCC1c1cc3nc(N4CCC(N)C4)cc(n3n1)N(C)CCCCO2` [Example 244, (23aS)-18-[(3S)-3-aminopyrrolidin-1-yl]-8,16-dimethyl-1,3,4,13,14,15,16,23a-octahydro-2H, 6H,12H-23,20-(metheno)pyrido[2,1-k]pyrimido[6,1-g][1,6,8,9,12]benzoxatetraazacyclopentadecin-6-one hydrochloride]: the results for the EC50 (with RSV ATCC VR-1540 (A2); in data set [2]) were 4.01 nmol/L and 7.34 nmol/L, respectively.

Regarding `CN1CCOCCOc2ccc(Cl)cc2C(=O)N2CCCC[C@H]2c2cc3nc(N4CC(N)C4)cc1n3n2` [Example 298, (18aS)-13-(3-aminoazetidin-1-yl)-2-chloro-11-methyl-6,7,10,11,19,20,21,22-octahydro-9H,18aH,24H-18,15-(metheno)pyrido[2,1-l]pyrimido[6,1-h][1,4,7,9,10,13]benzodioxatetraazacyclohexadecin-24-one], the EC50 in data set [2] was 3.13 nmol/L.

In the case of `CN1CCCS(=O)(=O)Nc2ccc(Cl)cc2C(=O)N2CCCCC2c2cc3nc(N4CCC(N)C4)cc1n3n2` [Example 312, (23aS)-18-[(3S)-3-aminopyrrolidin-1-yl]-8-chloro-16-methyl-1,3,4,13,14,15,16,23a-octahydro-2H,6H-23,20-(metheno)-12h-pyrido[2,1-k]pyrimido[6,1-g][2,1,6,8,9,12]benzothiapentaazacyclopentadecine-6,12,12(11H)-trione], the EC50 in the data set with RSV ATCC VR-1540 (A2) is 4.05 nmol/L; in data set [2], 31.8 nmol/L.

Regarding `CN1CCn2ccnc2COc2ccc(Cl)cc2C(=O)N2CCCC[C@H]2c2cc3nc(N4CC(N)C4)cc1n3n2` [Example 335, (20aS)-15-(3-amninoazetidin-1-yl)-2-chloro-13-methyl-12,13,21,22,23,24-hexahydro-6H,11H, 20aH,26H-20,17-(metheno)imidazo[2,1-c]pyrido[2,1-l]pyrimido[6,1-h][1,4,7,9,10,13]benzoxapentaazacyclohexadecin-26-one], the EC50 in data set [2] was 10.6 nmol/L.

With `Cc1ccc2c(c1)C(=O)N1CCCCC1c1cc3nc(N4CC(O)C4)cc(n3n1)N(C)CC(C(F)(F)F)NCCO2` [Example 348, (18aS)-13-(3-hydroxyazetidin-1-yl)-2,11-dimethyl-9-(trifluoromethyl)-6,7,8,9,10,11,19,20,21,22-decahydro-18aH,24H-18,15-(metheno)pyrido[2,1-l]pyrimido[6,1-h][1,4,7,9,10,13]benzoxapentaazacyclohexadecin-24-one], the EC50 in data set [2] was determined as 8.2 nmol/L.

As for `Cc1cn2nc([C@@H]3CCCCN3C(=O)c3cc(Cl)ccc3NS(C)(=O)=O)cc2nc1N1CC[C@H](N)C1` [GS-5806], the “reduction of activity against the D486N mutant strain compared to the activity against the wild strain” value in the data set on D486N mutant strain was “approximately 1000 times”.

Turning to “(18aS)-13-(trans-3-hydroxycyclobutyl)-11-methyl-2-trideuteriomethyl-8,9,10,11,19,20,21,22-octahydro-18aH,24H-18,15-(metheno)pyrido[2,1-l]pyrimido[6,1-h][1,4,7,9,10,13]benzoxapentaazacyclohexadecine-7,24(6H)-dione [Example 118t]”, the EC50 in data set [2] came out at 0.72 nmol/L.
